{"source": "patent US9457033B2", "about": "“Steroid alkaloids and uses thereof as antimicrobial agents against electron transport-deficient microbes and as potentiators for antimicrobial agents against pathogenic bacteria” (priority 2011, dated 2016)", "key": {"S. aureus 8325-4": {"system": "S. aureus 8325-4", "assay": "MIC, microdilution in CAMHB 24 h", "assay_type": "cell-based, Staphylococcus aureus", "conditions": "8325-4; for MIC: Staphylococcus aureus, 83254"}, "S. aureus MA078038": {"system": "S. aureus MA078038", "assay": "MIC, microdilution in CAMHB 24 h", "assay_type": "cell-based, Staphylococcus aureus", "conditions": "for MIC: Staphylococcus aureus"}, "S. aureus Newman": {"system": "S. aureus Newman", "assay": "MIC, microdilution in CAMHB 24 h", "assay_type": "cell-based, Staphylococcus aureus", "conditions": "Newman; for MIC: Staphylococcus aureus"}, "S. aureus Mu50": {"system": "S. aureus Mu50", "assay": "MIC, microdilution in CAMHB 24 h", "assay_type": "cell-based, Staphylococcus aureus", "conditions": "for MIC: Staphylococcus aureus"}, "S. aureus CF7A-L": {"system": "S. aureus CF7A-L", "assay": "MIC, microdilution in CAMHB 24 h", "assay_type": "cell-based, Staphylococcus aureus", "conditions": "CF7A-L; for MIC: Staphylococcus aureus"}, "[1]": {"system": "all tested S. aureus strains", "assay": "Average potentiation of aminoglycoside MIC by tomatidine (FIGS. 6, 7)", "assay_type": "cell-based, Staphylococcus aureus", "conditions": "tomatidine at 8 μg/ml"}, "[2]": {"system": "S. epidermidis ATCC 12228", "assay": "MIC, microdilution, with or without tomatidine", "conditions": "for MIC: Staphylococcus epidermidis"}, "[3]": {"system": "S. epidermidis ATCC 35984", "assay": "MIC, microdilution, with or without tomatidine", "conditions": "for MIC: Staphylococcus epidermidis"}, "S. haemolyticus sh022": {"system": "S. haemolyticus sh022", "assay": "MIC, microdilution, with or without tomatidine", "conditions": "for MIC: Staphylococcus haemolyticus"}, "S. haemolyticus sh032": {"system": "S. haemolyticus sh032", "assay": "MIC, microdilution, with or without tomatidine", "conditions": "for MIC: Staphylococcus haemolyticus"}, "S. hominis ssp008c": {"system": "S. hominis ssp008c", "assay": "MIC, microdilution, with or without tomatidine", "conditions": "for MIC: Staphylococcus hominis, SSP008C"}, "S. hominis sho23": {"system": "S. hominis sho23", "assay": "MIC, microdilution, with or without tomatidine", "conditions": "for MIC: Staphylococcus hominis"}, "[4]": {"conditions": "8 μg/ml of tomatidine, read-out: MIC +TO"}, "[5]": {"conditions": "absence of tomatidine, read-out: MIC −TO"}}, "note": "Like-named read-outs stand apart in the source and are kept apart here.", "data": [{"compound": "NC[C@H]1O[C@H](O[C@H]2[C@H](O)[C@@H](O[C@H]3O[C@H](CO)[C@@H](O)[C@H](N)[C@H]3O)[C@H](N)C[C@@H]2N)[C@H](N)C[C@@H]1O", "note": "[Tobramycin, tobramycin]", "values": [{"measurement": "Fold (−TO/+TO)", "setting": "S. aureus 8325-4; 8 μg/ml of tomatidine", "value": 4, "unit": "fold"}, {"measurement": "MIC", "setting": "S. aureus 8325-4; [4]", "value": "0.03 to 0.06", "unit": "µg/mL"}, {"measurement": "MIC", "setting": "S. aureus 8325-4; Laboratory strain, read-out: MIC", "value": "0.12 to 0.25", "unit": "µg/mL"}, {"measurement": "MIC", "setting": "S. aureus 8325-4; [5]", "value": "0.12 to 0.25", "unit": "µg/mL"}, {"measurement": "Fold (−TO/+TO)", "setting": "S. aureus MA078038; MA078038, 8 μg/ml of tomatidine", "value": "4-8 fold"}, {"measurement": "MIC", "setting": "S. aureus MA078038; MA078038, aph(3′)-IIIa, 8 μg/ml of tomatidine, read-out: MIC +TO", "value": "0.06 to 0.12", "unit": "µg/mL"}, {"measurement": "MIC", "setting": "S. aureus MA078038; MA078038, aph(3′)-IIIa, absence of tomatidine, read-out: MIC −TO", "value": 0.5, "unit": "µg/mL"}, {"measurement": "MIC", "setting": "S. aureus MA078038; MA078038, Human (CA), MRSA, read-out: MIC", "value": 0.5, "unit": "µg/mL"}, {"measurement": "Fold (−TO/+TO)", "setting": "S. aureus Newman; 8 μg/ml of tomatidine", "value": "2-8 fold"}, {"measurement": "MIC", "setting": "S. aureus Newman; [4]", "value": "0.06 to 0.12", "unit": "µg/mL"}, {"measurement": "MIC", "setting": "S. aureus Newman; Human (Osteo), read-out: MIC", "value": "0.25 to 0.5", "unit": "µg/mL"}, {"measurement": "MIC", "setting": "S. aureus Newman; [5]", "value": "0.25 to 0.5", "unit": "µg/mL"}, {"measurement": "Fold (−TO/+TO)", "setting": "S. aureus Mu50; Mu50, 8 μg/ml of tomatidine", "value": 8, "unit": "fold"}, {"measurement": "MIC", "setting": "S. aureus Mu50; Mu50, aac(6′)-aph(2″), ant(4′)-Ia, 8 μg/ml of tomatidine, read-out: MIC +TO", "value": 128, "unit": "µg/mL"}, {"measurement": "MIC", "setting": "S. aureus Mu50; Mu50, aac(6′)-aph(2″), ant(4′)-Ia, absence of tomatidine, read-out: MIC −TO", "value": 1020, "unit": "µg/mL"}, {"measurement": "MIC", "setting": "S. aureus Mu50; Mu50, Human (SSTI), MRSA, VISA, read-out: MIC", "value": 1020, "unit": "µg/mL"}, {"measurement": "Fold (−TO/+TO)", "setting": "S. aureus CF7A-L; 8 μg/ml of tomatidine", "value": "2-8 fold"}, {"measurement": "MIC", "setting": "S. aureus CF7A-L; CF7AL, ant(4′)-Ia, 8 μg/ml of tomatidine, read-out: MIC +TO", "value": "128 to 512", "unit": "µg/mL"}, {"measurement": "MIC", "setting": "S. aureus CF7A-L; CF7AL, ant(4′)-Ia, absence of tomatidine, read-out: MIC −TO", "value": 1020, "unit": "µg/mL"}, {"measurement": "MIC", "setting": "S. aureus CF7A-L; Human (CF lungs), MRSA, read-out: MIC", "value": 1020, "unit": "µg/mL"}, {"measurement": "average increase of antibacterial activity", "setting": "[1]", "value": "8±3", "unit": "fold"}, {"measurement": "Fold (−TO/+TO)", "setting": "[2]; S. epidermidis ATCC 12228, 8 μg/ml of tomatidine", "value": 2, "unit": "fold"}, {"measurement": "MIC", "setting": "[2]; ATCC12228, read-out: MIC +TO", "value": 0.06, "unit": "µg/mL"}, {"measurement": "MIC", "setting": "[2]; ATCC12228, read-out: MIC −TO", "value": 0.12, "unit": "µg/mL"}, {"measurement": "Fold (−TO/+TO)", "setting": "[3]; S. epidermidis ATCC 35984, 8 μg/ml of tomatidine", "value": 8, "unit": "fold"}, {"measurement": "MIC", "setting": "[3]; ATCC35984, read-out: MIC +TO", "value": 2, "unit": "µg/mL"}, {"measurement": "MIC", "setting": "[3]; ATCC35984, read-out: MIC −TO", "value": 16, "unit": "µg/mL"}, {"measurement": "Fold (−TO/+TO)", "setting": "S. haemolyticus sh022; S. haemolyticus sh022, 8 μg/ml of tomatidine", "value": 8, "unit": "fold"}, {"measurement": "MIC", "setting": "S. haemolyticus sh022; SH022, read-out: MIC +TO", "value": 4, "unit": "µg/mL"}, {"measurement": "MIC", "setting": "S. haemolyticus sh022; SH022, read-out: MIC −TO", "value": 32, "unit": "µg/mL"}, {"measurement": "Fold (−TO/+TO)", "setting": "S. haemolyticus sh032; S. haemolyticus sh032, 8 μg/ml of tomatidine", "value": 16, "unit": "fold"}, {"measurement": "MIC", "setting": "S. haemolyticus sh032; SH032, read-out: MIC +TO", "value": 2, "unit": "µg/mL"}, {"measurement": "MIC", "setting": "S. haemolyticus sh032; SH032, read-out: MIC −TO", "value": 32, "unit": "µg/mL"}, {"measurement": "Fold (−TO/+TO)", "setting": "S. hominis ssp008c; S. hominis ssp008c, 8 μg/ml of tomatidine", "value": 4, "unit": "fold"}, {"measurement": "MIC", "setting": "S. hominis ssp008c; read-out: MIC +TO", "value": 8, "unit": "µg/mL"}, {"measurement": "MIC", "setting": "S. hominis ssp008c; read-out: MIC −TO", "value": 32, "unit": "µg/mL"}, {"measurement": "Fold (−TO/+TO)", "setting": "S. hominis sho23; S. hominis sho23, 8 μg/ml of tomatidine", "value": 4, "unit": "fold"}, {"measurement": "MIC", "setting": "S. hominis sho23; SHO23, read-out: MIC +TO", "value": 1, "unit": "µg/mL"}, {"measurement": "MIC", "setting": "S. hominis sho23; SHO23, read-out: MIC −TO", "value": 4, "unit": "µg/mL"}]}]}
